Measured values published in ChEMBL document CHEMBL5247648, “Design, Synthesis, and Anti-Cancer Evaluation of Novel Cyclic Phosphate Prodrug of Gemcitabine” (J Med Chem, 2023).
Activity calls are given as the source filed them. No cut-off for these calls is given here.

Assays:
[1] = Cmax in Beagle dog at 1 mg/kg, iv measured for 0.083 to 24 hrs by LC-MS/MS analysis; type: ADME, organism-based, Canis lupus familiaris; design: time upper 24 hrs, time lower 0.083 hrs, dose 1 mg/kg, route iv; conditions: in vivo
[2] = tested on: BXPC-3; assay: Induction of apoptosis in human BXPC-3 cells assessed as early cells at 25 nM incubated for 24 hrs by […] (reference value: 1.68 %); type: functional
[3] = Metabolic stability in human plasma assessed as half life incubated for 6 hrs by HPLC analysis; type: ADME, cell-free
[4] = tested on: BXPC-3; assay: Antiproliferative activity against human BXPC-3 cells assessed as inhibition of cell proliferation treated for 72 hrs by resazurin dye-based fluorescence assay; type: functional; conditions: BXPC-3, 72 h
[5] = tested on: CWR22R; assay: Antiproliferative activity against human 22Rv1 cells assessed as inhibition of cell proliferation treated for 72 hrs by resazurin dye-based fluorescence assay; type: functional; conditions: 22Rv1, 72 h
[6] = Toxicity in castrated male nude Balb/c mouse xenografted with human 22Rv1 cells assessed as toxic signs at 50 mg/kg, ip administered twice a week measured after 28 days; type: organism-based, CWR22R; conditions: in vivo, 672 h, time 28 day
[7] = tested on: MV4-11; assay: Antiproliferative activity against human MV4-11 cells assessed as inhibition of cell proliferation treated for 72 hrs by resazurin dye-based fluorescence assay; type: functional; conditions: MV4-11, 72 h
[8] = tested on: MIA PaCa-2; assay: Antiproliferative activity against human MIA PaCa-2 cells assessed as inhibition of cell proliferation treated for 72 hrs by resazurin dye-based fluorescence assay; type: functional; conditions: MIA PaCa-2, 72 h
[9] = tested on: BXPC-3; assay: Induction of apoptosis in human BXPC-3 cells assessed as viable cells at 25 nM incubated for 24 hrs by […] (reference value: 93.51 %); type: functional; conditions: read-out: Activity
[10] = tested on: CWR22R; assay: In vivo antitumor activity against human 22Rv1 cells xenografted in castrated male nude Balb/c mouse assessed as relative increment ratio at 50 mg/kg, ip administered twice a week measured after 28 days relative to control; type: functional; conditions: time 28 day
[11] = Toxicity in castrated male nude Balb/c mouse xenografted with human 22Rv1 cells assessed as animal weight loss at 50 mg/kg, ip administered twice a week measured after 28 days; type: organism-based, CWR22R; conditions: in vivo, 672 h, time 28 day
[12] = Prodrug conversion in human plasma assessed as metabolites formation incubated for 24 hrs by 31P-NMR analysis; type: ADME, cell-free
[13] = tested on: BXPC-3; assay: Induction of apoptosis in human BXPC-3 cells assessed as necrotic cells at 25 nM incubated for 24 hrs by […] (reference value: 3.57 %); type: functional
[14] = Clearance in Beagle dog at 1 mg/kg, iv measured for 0.083 to 24 hrs by LC-MS/MS analysis; type: ADME, organism-based, Canis lupus familiaris; conditions: in vivo, time 0.083-24 hrs
[15] = tested on: BXPC-3; assay: Induction of apoptosis in human BXPC-3 cells assessed as early cells at 100 nM incubated for 24 hrs by […] (reference value: 1.68 %); type: functional
[16] = tested on: Huh-7; assay: Antiproliferative activity against human Huh-7 cells assessed as inhibition of cell proliferation treated for 72 hrs by resazurin dye-based fluorescence assay; type: functional; conditions: Huh-7, 72 h
[17] = tested on: BXPC-3; assay: Upregulation of cleaved caspase-3 expression in human BXPC-3 cells at 25 to 100 nM incubated for 24 hrs by Western blot analysis; type: functional, cell-based; conditions: dose 25-100 nM
[18] = tested on: CWR22R; assay: Antiproliferation activity against human 22Rv1 cells xenografted in castrated male nude Balb/c mouse assessed as downregulation of Ki-67 level at 50 mg/kg, ip administered twice a week measured after 28 days by immunohistochemical assay relative to control; type: functional, organism-based; conditions: time 28.0 day
[19] = Toxicity in castrated male nude Balb/c mouse xenografted with human 22Rv1 cells assessed as tolerance at 50 mg/kg, ip administered twice a week measured after 28 days; type: organism-based, CWR22R; conditions: in vivo, 672 h, time 28 day
[20] = Toxicity in nude Balb/c mouse xenografted with human BXPC-3 cells assessed as apparent signs of toxicity at 50 to 80 mg/kg, ip measured after 28 days; type: organism-based; conditions: in vivo, 672 h, dose 50-80 mg/kg, time 28 day
[21] = tested on: BXPC-3; assay: Induction of apoptosis in human BXPC-3 cells assessed as necrotic cells at 50 nM incubated for 24 hrs by […] (reference value: 3.57 %); type: functional
[22] = Half life in Beagle dog at 1 mg/kg, iv measured for 0.083 to 24 hrs by LC-MS/MS analysis; type: ADME, organism-based, Canis lupus familiaris; conditions: in vivo, time 0.083-24 hrs
[23] = tested on: JeKo-1; assay: Antiproliferative activity against human JeKo-1 cells assessed as inhibition of cell proliferation treated for 72 hrs by resazurin dye-based fluorescence assay; type: functional; conditions: JeKo-1, 72 h
[24] = (§1) Prodrug conversion in human plasma assessed as mixture of benzyl 2-(((((2R,3R,5R)-5-(4-amino-2-oxopyrimidin-1(2H)-yl)-4,4-difluoro-3-hydroxytetrahydrofuran-2-yl)methoxy)(hydroxy)phosphoryl)oxy)acetate and benzyl 2-(((((2R,3R,5R)-5-(4-amino-2-oxopyrimidin-1(2H)-yl)-4,4-difluoro-2-(hydroxymethyl)tetrahydrofuran-3-yl)oxy)(hydroxy)phosphoryl)oxy)acetate metabolites formation incubated for 72 hrs by 31P-NMR analysis; type: ADME, cell-free
[25] = tested on: BXPC-3; assay: Cell cycle arrest in human BXPC-3 cells assessed as cell accumulation at S phase at 25 to 100 nM incubated for 24 hrs by flow cytometry; type: functional, cell-based; conditions: dose 25-100 nM
[26] = as §1, with “1H-NMR” for “31P-NMR”; type: ADME, cell-free
[27] = tested on: BXPC-3; assay: Induction of apoptosis in human BXPC-3 cells assessed as late cells at 50 nM incubated for 24 hrs by […] (reference value: 1.24 %); type: functional
[28] = tested on: BXPC-3; assay: Induction of apoptosis in human BXPC-3 cells assessed as late cells at 100 nM incubated for 24 hrs by […] (reference value: 1.24 %); type: functional
[29] = tested on: MM1.S; assay: Antiproliferative activity against human MM1.S cells assessed as inhibition of cell proliferation treated for 72 hrs by resazurin dye-based fluorescence assay; type: functional
[30] = tested on: BXPC-3; assay: Induction of apoptosis in human BXPC-3 cells assessed as early cells at 50 nM incubated for 24 hrs by […] (reference value: 1.68 %); type: functional
[31] = Metabolic stability in beagle dog plasma assessed as half life incubated for 6 hrs by HPLC analysis; type: ADME, cell-free, Canis lupus familiaris
[32] = tested on: BXPC-3; assay: Induction of apoptosis in human BXPC-3 cells assessed as necrotic cells at 100 nM incubated for 24 hrs by […] (reference value: 3.57 %); type: functional
[33] = AUC (0 to infinity) in Beagle dog at 1 mg/kg, iv measured for 0.083 to 24 hrs by LC-MS/MS analysis; type: ADME, organism-based, Canis lupus familiaris; design: time upper 24 hrs, time lower 0.083 hrs, dose 1 mg/kg, route iv; conditions: in vivo
[34] = tested on: BXPC-3; assay: Upregulation of P21 WAF1/Cip1 expression in human BXPC-3 cells at 25 to 100 nM incubated for 24 hrs by Western blot analysis; type: functional, cell-based; conditions: dose 25-100 nM
[35] = Metabolic stability in rat plasma assessed as half life incubated for 6 hrs by HPLC analysis; type: ADME, cell-free
[36] = tested on: BXPC-3; assay: Induction of apoptosis in human BXPC-3 cells assessed as viable cells at 50 nM incubated for 24 hrs by […] (reference value: 93.51 %); type: functional; conditions: read-out: Activity
[37] = tested on: BXPC-3; assay: Induction of apoptosis in human BXPC-3 cells assessed as viable cells at 100 nM incubated for 24 hrs by […] (reference value: 93.51 %); type: functional; conditions: read-out: Activity
[38] = tested on: BXPC-3; assay: Induction of apoptosis in human BXPC-3 cells assessed as late cells at 25 nM incubated for 24 hrs by […] (reference value: 1.24 %); type: functional
[39] = as §1, with “LC-MS” for “31P-NMR”; type: ADME, cell-free
[40] = tested on: CWR22R; assay: In vivo antitumor activity against human 22Rv1 cells xenografted in castrated male nude Balb/c mouse assessed as tumor growth inhibition at 50 mg/kg, ip administered twice a week measured after 28 days relative to control; type: functional; conditions: 22Rv1, 672 h, time 28 day, read-out: TGI
[41] = tested on: BXPC-3; assay: In vivo antitumor activity against human BXPC-3 cells xenografted in nude Balb/c mouse assessed as tumor growth inhibition at 50 to 80 mg/kg, ip measured after 28 days; type: functional, organism-based; conditions: dose 50-80 mg/kg, time 28.0 day

Compound: Nc1ccn([C@@H]2O[C@@H]3COP(=O)(OCC(=O)OCc4ccccc4)O[C@H]3C2(F)F)c(=O)n1 (stereo not given in full)
- Cmax [1]: 3600 ng/mL
- Activity [2]: 2.87%
- half-life [3]: 40 min
- IC50 [4]: 16.5 nM
- IC50 [5]: 10.6 nM
- Activity [6]: Non-Toxic
- IC50 [7]: 5.4 nM
- IC50 [8]: 12.5 nM
- viability at 0.025 µM [9]: 91.7%
- T/C [10]: 35.2%
- Activity [11]: Non-Toxic
- Drug metabolism [12]: Metabolite_Detected
- Activity [13]: 3.17%
- clearance [14]: 32.5 mL/min/kg
- Activity [15]: 3.5%
- IC50 [16]: 16.2 nM
- Activity [17]: inactive
- Activity [18]: Active
- Activity [19]: Non-Toxic
- Activity [20]: Non-Toxic
- Activity [21]: 4.02%
- half-life [22]: 7.2 min
- IC50 [23]: 19.2 nM
- Drug metabolism [24]: Metabolite_Detected
- Activity [25]: Active
- Drug metabolism [26]: Metabolite_Detected
- Activity [27]: 2.73%
- Activity [28]: 3.48%
- IC50 [29]: 3.6 nM
- Activity [30]: 3.19%
- half-life [31]: 40 min
- Activity [32]: 4.42%
- AUC(0-inf) [33]: 520 ng·h/mL
- Activity [34]: Active
- half-life [35]: 40 min
- viability at 0.05 µM [36]: 90.1%
- viability at 0.1 µM [37]: 88.6%
- Activity [38]: 2.31%
- Drug metabolism [39]: Metabolite_Detected
- inhibition in vivo at 50 mg/kg [40]: 68.5%
- Activity [41]: Active

Compound: Nc1ccn([C@@H]2O[C@H](COP(=O)(O)OCC(=O)OCc3ccccc3)[C@@H](O)C2(F)F)c(=O)n1
- Cmax [1]: 2560 ng/mL
- IC50 [4]: 64.5 nM
- IC50 [5]: 43.2 nM
- IC50 [7]: 10.3 nM
- clearance [14]: 28.4 mL/min/kg
- IC50 [16]: 69 nM
- half-life [22]: 35.2 min
- IC50 [29]: 17.3 nM
- AUC(0-inf) [33]: 637 ng·h/mL

Compound: Nc1ccn([C@@H]2O[C@H](CO)[C@@H](OP(=O)(O)OCC(=O)OCc3ccccc3)C2(F)F)c(=O)n1
- Cmax [1]: 2560 ng/mL
- IC50 [4]: 64.5 nM
- IC50 [5]: 43.2 nM
- IC50 [7]: 10.3 nM
- clearance [14]: 28.4 mL/min/kg
- IC50 [16]: 69 nM
- half-life [22]: 35.2 min
- IC50 [29]: 17.3 nM
- AUC(0-inf) [33]: 637 ng·h/mL

Compound: C[C@H](NP(=O)(OC[C@H]1O[C@@H](n2ccc(N)nc2=O)C(F)(F)[C@@H]1O)Oc1ccccc1)C(=O)OCc1ccccc1 (stereo not given in full) [FOSGEMCITABINE PALABENAMIDE]
- IC50 [4]: 230 nM
- IC50 [5]: 130 nM
- Activity [6]: Non-Toxic
- IC50 [7]: 61 nM
- IC50 [8]: 142 nM
- T/C [10]: 51.9%
- Activity [11]: Non-Toxic
- Activity [15]: 1.52%
- IC50 [16]: 350 nM
- Activity [19]: Non-Toxic
- IC50 [23]: 160 nM
- Activity [28]: 2.3%
- IC50 [29]: 31.1 nM
- Activity [32]: 7.48%
- viability at 0.1 µM [37]: 88.7%
- inhibition in vivo at 50 mg/kg [40]: 55.6%
